Values joined by “and” are separate entries in the source; they are usually repeats but may differ in a detail not shown here. Identical values can stand only once. Like-named read-outs stand apart in the source and are kept apart here. A value given as a limit tells only on which side of the number the result lay.

In data set [1] the test system is M^pro. Conditions: read-out: M^pro IC50 previously reported, cited from earlier work.
For data set [2], the target named is SARS-CoV-2 M^pro (Severe acute respiratory syndrome coronavirus 2, UniProt P0DTD1). As to the kind of experiment: biochemical. It counts as biochemical. The conditions noted are these: buffer with 5 mM DTT; for inhibition at 20 µM: 20 μM compound, for values marked a the relative standard deviation of 6% applies, read-out: SARS-CoV-2 M^pro enzyme inhibition (%) 20 μM; for inhibition at 100 µM: 100 μM compound, read-out: SARS-CoV-2 M^pro enzyme inhibition (%) 100 μM; for IC50: read-out: SARS-CoV-2 M^pro IC50.

Data set [3] can be described thus: Cytotoxicity in Calu-3 cells. The conditions noted are these: human.
Data set [4] concerns the target T1, M^pro (Severe acute respiratory syndrome coronavirus 2, UniProt P0DTD1). It counts as binding. The conditions noted are these: 2 μM protein, 50 μM ligand.
For data set [5], the target named is T1, M^pro. As to the kind of experiment: Competitive 1H CPMG relaxation dispersion NMR with compound 4 as reporter ligand. The data set is classed as binding, SARS-CoV-2. The conditions noted are these: competition with compound 4.
The test system of data set [6] is SARS-CoV-2. Put plainly: Antiviral assay in Calu-3 cells (spike staining). The data set is classed as cell-based.
Data set [7] can be described thus: in vitro. The conditions noted are these: human.
Data set [8] addresses T2, SARS-CoV-2 PLpro (Severe acute respiratory syndrome coronavirus 2, UniProt P0DTD1). As to the kind of experiment: biochemical. The conditions noted are these: for SARS-CoV-2 PLpro inhibition % enzyme inhibition (20 µM): commercial Anaspec assay kit; for inhibition at 20 µM: read-out: SARS-CoV-2 PLpro inhibition % enzyme inhibition (20 µM). Also on record: papain-like protease (PL^pro; domain of nsp3); purchased Anaspec (Fremont, USA) AS-72263.

In data set [9] the target is T2, SARS-CoV-2 PLpro. Put plainly: PL^pro fluorogenic peptide cleavage assay (substrate Z-RLRGG-AMC). It counts as biochemical. Details: papain-like protease (PL^pro; domain of nsp3); His; purchased BPS Biosciences BPS-100735-1. The conditions noted are these: for inhibition at 20 µM: read-out: SARS-CoV-2 PL^pro enzyme inhibition (%) 20 μM.
In data set [10] the test system is SARS-CoV-2. Put plainly: Antiviral assay in Caco-2 cells. The data set is classed as cell-based.
Data set [11] in a line: Cytotoxicity in Caco-2 cells. Conditions: human.
A short description of data set [12]: in vitro. The conditions noted are these: human, Caco-2.
Setting [13] is: Severe acute respiratory syndrome coronavirus 2, Calu-3 cells, MOI 0.01, 48 h postinfection, read-out: Anti-SARS-CoV-2 activity IC50.
[14] abbreviates: Severe acute respiratory syndrome coronavirus 2, Caco-2, read-out: Anti SARS-CoV-2 activity Caco-2 IC50 (µM).
Setting [15] is: Severe acute respiratory syndrome coronavirus 2, Calu-3, 48 h, read-out: Anti-SARS-CoV-2 activity IC50 (μM).

As for `O=c1cc(-c2ccccc2)oc2cc(O)c(O)c(O)c12` [Compound 4, baicalein, reference compound], the IC50 in [1] is 0.98 µM. Besides, in [2], the inhibition at 20 µM came out at 8.6% and the inhibition at 100 µM was determined as 90 ± 1.4%.

`CC(C)=CC[C@]12Oc3cc(O)c([C@H]4C=C(C)C[C@H](c5ccc(O)cc5O)[C@H]4C(=O)c4ccc(O)cc4O)c(O)c3C(=O)[C@@]1(O)Oc1cc(O)ccc12` [Compound 12, sanggenon C] showed a CC50 in data set [3] of 23.6 µM. The STD signals entry in data set [4] is given as “no STD signals were detected”. The “displacement of reporter ligand 4 from M^pro (CPMG-RD)” value (from here on “displacement”) in [5] is on record as “displacement from the binding site”. Further, the IC50 in [6] (setting [13]) is 4.6 µM; in data set [2], 7.24 µM and 7.2 µM.

Consider `CC(C)=CC[C@@]12Oc3cc(O)c([C@H]4C=C(C)C[C@H](c5ccc(O)cc5O)[C@H]4C(=O)c4ccc(O)cc4O)c(O)c3C(=O)[C@]1(O)Oc1cc(O)ccc12` [Compound 13, sanggenon O], for which the CC50 in data set [3] was 24.9 µM. For the same molecule, the STD signals result in [4] was “no STD signals were detected”. Besides, the “displacement” value in data set [5] is “did not significantly displace 4”. For the same molecule, the half-inhibitory concentration (IC50) in data set [6] (setting [13]) stood at 8 µM; in data set [2], 6.7 µM.

In data set [7], `CC(C)=CCCC1=C[C@H](c2c(O)cc3c(c2O)C(=O)C[C@@H](c2ccc(O)cc2O)O3)[C@@H](C(=O)c2ccc(O)cc2O)[C@H](c2ccc(O)cc2O)C1` [Compound 15, sanggenon G] returned a CC50 of 49.1 µM. Also, the STD signals entry in data set [4] is on record as “no STD signals were detected”. In data set [5], the “displacement” value is “displacement from the binding site”. For the same molecule, in [6] (Calu-3 cells, cytotoxicity vs anti-SARS-CoV-2 activity), the “selectivity index (SI)” value is 6.5 and > 5. The IC50 in data set [6] (setting [13]) was found to be 7.6 µM. Further, in data set [2], the inhibition at 20 µM was 92.6%; the inhibition at 100 µM was 99.6 ± 0.2%; the IC50 was 4.82 µM and 4.8 µM.

As for `CC(=O)O[C@H](CC=C(C)C)C1=CC(=O)c2c(O)ccc(O)c2C1=O` [Compound 30, acetylshikonin], the IC50 in [1] (reported inhibition later described as assay artifact (ref 34)) is 3.8 µM; in [9] (Z-RLRGG-AMC substrate) it was 24.3 µM; in data set [6] (setting [13]) it was greater than 100 µM; in data set [10] (setting [14]), greater than 100 µM. Also, in data set [8], the “SARS-CoV-2 PLpro inhibition % enzyme inhibition (20 µM)” value is given as “significant enzyme inhibition”. In addition, the inhibition at 20 µM in data set [8] is 100 ± 9.5%. Besides, the CC50 in data set [3] was greater than 100 µM; in [11], 65.8 µM.

On to `C=CCc1ccc(O)c(-c2cc(CC=C)ccc2O)c1` [Compound 36, magnolol], for which the inhibition at 20 µM in data set [8] amounted to 58.2 ± 11.5%; in [9] it was 4.3 ± 6.6%. The CC50 in [3] is greater than 20 µM; in [11], 47.3 µM. Further, the results for the IC50 in data set [6] (setting [15]) and in [10] (setting [14]) were 26.8 µM and 17.7 µM, respectively. Moreover, the “antiviral activity against SARS-CoV-2 (in words)” value in data set [6] (two different cell lines (Caco-2, Calu-3)) is “moderately acting antiviral compounds”.

For the molecule `COc1ccc2c(=O)c(Oc3ccc(C(=O)NC(C)Cc4c[nH]c5ccccc45)cc3)coc2c1` (centres unmarked) [Compound 42], the CC50 in [12] and in data set [7] was greater than 100 µM throughout. The “SARS-CoV-2 PLpro inhibition % enzyme inhibition (20 µM)” value in [8] is reported as “significant enzyme inhibition”. Moreover, the inhibition at 20 µM in data set [8] amounted to 82.3 ± 25.3%; in [9], 4.89 ± 1.3%. In addition, in [9] (read-out: SARS-CoV-2 PL^pro enzyme inhibition (%) 100 μM), the inhibition at 100 µM was 8.8 ± 7%. The IC50 in data set [6] (setting [15]) is greater than 100 µM; in data set [10] (Severe acute respiratory syndrome coronavirus 2, Caco-2 cells, read-out: Anti SARS-CoV-2 activity Caco-2 IC50), 7.1 µM.

The values above are taken from publication PMC9885530, “Identification of Natural Products Inhibiting SARS-CoV-2 by Targeting Viral Proteases: A Combined in Silico and in Vitro Approach” (Journal of Natural Products, 2023).
